The text below walks through data of patent US9179694B2, “Method and composition for enhancing milk production and milk component concentrations” (PURINA ANIMAL NUTRITION LLC, priority 2003, dated 2015).

Marks after values point to notes of the source that are not given here.

A short description of the assay: Non-esterified fatty acid (NEFA) concentration in blood in sorbitol feeding trials. In kind it is in vivo, Holstein cows. The settings on record: for lower concentration of NEFA in the blood: at about the time of giving birth. The procedure:
To determine the weight percent of non-esterified fatty acid NEFA, wet basis, in a sample of blood, the blood sample is analyzed by an enzymatic colorimetric method (ACS-ACOD) using the NEFA C diagnostic kit (WAKO Chemicals USA, Richmond, Va.) in combination with an Hitachi 704 Automated Chemistry Analyzer (Hitachi Ltd., Tokyo, Japan). The enzymatic colorimetric method utilizes acyl-CoA synthethase (ACS) and acyl-CoA oxidase (ACOD) to produce a substance that may be measured colorimetrically. The NEFA analysis is conducted in accordance with the NEFA C ACS-ACOD Method instructions that WAKO Chemicals USA provides along with the NEFA C diagnostic kit.
Each cow of each of the six different trials (Control Trial #1, Control Trial #2, Pre-Partum Trial #1, Pre-Partum Trial #2, Pre/Post Trial #1, and Pre/Post Trial #2) was milked three times daily and the weight of produced milk by each cow was recorded at each milking. The milk from each cow was sampled once per week (⅓ of the sample volume from each of the three milkings occurring on the weekly milk sampling day) and was analyzed for true protein, total fat, lactose, and total solids, as detailed in the property determination and characterization techniques presented above. Additionally, samples of blood were periodically obtained from each cow during the four trials (Control Trial 2, Pre-Partum Trial #2, Pre/Post Trial #1, and Pre/Post Trial #2) encompassed in Example Two and were analyzed for non-esterified fatty acid (NEFA) content as detailed in the property determination and characterization techniques presented above. No NEFA analysis was conducted on the cows employed in Control Trial #1 or Pre-Partum Trial #1 that are the subject of Example One.
Example Two includes Control Trial #2, Pre-Partum Trial #2, Pre/Post Trial #1, and Pre/Post Trial #2. Only multiparious, Holstein cows were included in Control Trial #2, Pre-Partum Trial #1, Pre/Post Trial #1, and Pre/Post Trial #2. Eighteen multiparious cows were included in both Control Trial #2 and Pre-Partum Trial #2, while sixteen multiparious cows were included in Pre/Post Trial #1 and seventeen multiparious cows were included in Pre/Post Trial #2.

For the compound `OC[C@@H](O)[C@@H](O)[C@H](O)[C@@H](O)CO` [sorbitol], the “Non-Esterified Fatty Acid (NEFA) Concentration in Blood” value (“Non-Esterified Fatty Acid” for short) is 0.470^ab mEq/l (Pre-Partum Trial #2 (75/0/100 g/day in wk −3..−1/+1..+4/+5..+8), multiparious cows, day 0 (Calving)); 0.372 mEq/l (Pre-Partum Trial #2 (75/0/100 g/day in wk −3..−1/+1..+4/+5..+8), multiparious cows, day +10); 0.122 mEq/l (Pre-Partum Trial #2 (75/0/100 g/day in wk −3..−1/+1..+4/+5..+8), multiparious cows, day −7); 0.103 mEq/l (Pre-Partum Trial #2 (75/0/100 g/day in wk −3..−1/+1..+4/+5..+8), multiparious cows, day −21); 0.416^a mEq/l (Pre/Post Trial #1 (150/125/100 g/day in wk −3..−1/+1..+4/+5..+8), multiparious cows, day 0 (Calving)); 0.416^b mEq/l (Pre/Post Trial #1 (150/125/100 g/day in wk −3..−1/+1..+4/+5..+8), multiparious cows, day 0 (Calving), two-trial comparison with Control Trial #2 (Table 27)). In addition, the “Non-Esterified Fatty Acid” value by setting is: (Pre/Post Trial #1 (150/125/100 g/day in wk −3..−1/+1..+4/+5..+8), multiparious cows, day +10) 0.476 mEq/l; (Pre/Post Trial #1 (150/125/100 g/day in wk −3..−1/+1..+4/+5..+8), multiparious cows, day +10, two-trial comparison with Control Trial #2 (Table 27)) 0.476 mEq/l; (Pre/Post Trial #1 (150/125/100 g/day in wk −3..−1/+1..+4/+5..+8), multiparious cows, day −7) 0.107 mEq/l; (Pre/Post Trial #1 (150/125/100 g/day in wk −3..−1/+1..+4/+5..+8), multiparious cows, day −7, two-trial comparison with Control Trial #2 (Table 27)) 0.107 mEq/l; (Pre/Post Trial #1 (150/125/100 g/day in wk −3..−1/+1..+4/+5..+8), multiparious cows, day −21) 0.141 mEq/l; (Pre/Post Trial #1 (150/125/100 g/day in wk −3..−1/+1..+4/+5..+8), multiparious cows, day −21, two-trial comparison with Control Trial #2 (Table 27)) 0.141 mEq/l. In addition, the “Non-Esterified Fatty Acid” value is, setting by setting: (Pre/Post Trial #2 (75/75/100 g/day in wk −3..−1/+1..+4/+5..+8), multiparious cows, day 0 (Calving)) 0.637^ab mEq/l; (Pre/Post Trial #2 (75/75/100 g/day in wk −3..−1/+1..+4/+5..+8), multiparious cows, day +10) 0.556 mEq/l; (Pre/Post Trial #2 (75/75/100 g/day in wk −3..−1/+1..+4/+5..+8), multiparious cows, day −7) 0.119 mEq/l; (Pre/Post Trial #2 (75/75/100 g/day in wk −3..−1/+1..+4/+5..+8), multiparious cows, day −21) 0.114 mEq/l. The “lower NEFA concentrations in blood” value (Pre/Post Trial #1 (150/125/100 g/day) versus Control Trial #2, multiparious cows, at calving (Table 27)) was found to be 42%. Moreover, the “lower concentration of NEFA in the blood” value runs as follows: (Pre/Post Trial #2 (so in the source) versus Control Trial #2, multiparious cows) 42%; (average of means of Pre-Partum Trial #2, Pre/Post Trial #1 and Pre/Post Trial #2 versus Control Trial #2, multiparious cows) 28%. Further, where the note is “all three sorbitol feeding trials (Pre-Partum Trial #2, Pre/Post Trial #1, Pre/Post Trial #2), multiparous cows, the week before calving and at calving”, the “NEFA concentrations in blood compared with control” value is recorded as “lower than the NEFA concentrations in blood found during Control Trial #2”.
